From ChEMBL document CHEMBL3991601, “The target landscape of clinical kinase drugs” (Science, 2017)
Structures can show the parent of a compound that is named as a salt. Calls of active or inactive are those of the source.

Legend:
[1] = target: T1, DNA replication licensing factor MCM4 (Homo sapiens, UniProt P33991)
T1 sequence (P33991 whole entry): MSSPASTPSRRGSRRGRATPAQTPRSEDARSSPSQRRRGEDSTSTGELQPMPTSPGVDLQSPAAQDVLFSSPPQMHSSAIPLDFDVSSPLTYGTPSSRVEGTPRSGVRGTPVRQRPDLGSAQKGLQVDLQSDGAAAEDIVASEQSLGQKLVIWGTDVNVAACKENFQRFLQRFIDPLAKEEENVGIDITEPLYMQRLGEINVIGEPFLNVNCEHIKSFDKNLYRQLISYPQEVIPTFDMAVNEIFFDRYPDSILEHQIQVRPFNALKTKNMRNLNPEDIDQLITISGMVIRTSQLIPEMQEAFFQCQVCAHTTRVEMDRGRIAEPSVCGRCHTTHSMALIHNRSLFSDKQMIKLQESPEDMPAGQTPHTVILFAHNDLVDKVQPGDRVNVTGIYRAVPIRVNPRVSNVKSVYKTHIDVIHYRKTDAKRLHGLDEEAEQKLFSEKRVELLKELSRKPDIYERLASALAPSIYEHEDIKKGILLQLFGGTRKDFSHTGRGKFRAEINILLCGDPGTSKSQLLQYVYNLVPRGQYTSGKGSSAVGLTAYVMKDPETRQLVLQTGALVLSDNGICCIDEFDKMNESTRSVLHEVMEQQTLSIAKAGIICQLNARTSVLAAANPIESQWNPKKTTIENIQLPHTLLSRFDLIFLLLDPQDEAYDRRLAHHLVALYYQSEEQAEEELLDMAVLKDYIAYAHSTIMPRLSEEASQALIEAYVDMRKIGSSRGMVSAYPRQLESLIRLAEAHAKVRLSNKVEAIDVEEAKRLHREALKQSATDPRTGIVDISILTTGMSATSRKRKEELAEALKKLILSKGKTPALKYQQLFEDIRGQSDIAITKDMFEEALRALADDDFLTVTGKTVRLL

[2] = target: Protein kinase C alpha type (Homo sapiens, UniProt P17252)
[3] = target: Epithelial discoidin domain-containing receptor 1 (Homo sapiens, UniProt Q08345)
[4] = target: T2, Glycogen phosphorylase, brain form (Homo sapiens, UniProt P11216)
T2 sequence (P11216 whole entry): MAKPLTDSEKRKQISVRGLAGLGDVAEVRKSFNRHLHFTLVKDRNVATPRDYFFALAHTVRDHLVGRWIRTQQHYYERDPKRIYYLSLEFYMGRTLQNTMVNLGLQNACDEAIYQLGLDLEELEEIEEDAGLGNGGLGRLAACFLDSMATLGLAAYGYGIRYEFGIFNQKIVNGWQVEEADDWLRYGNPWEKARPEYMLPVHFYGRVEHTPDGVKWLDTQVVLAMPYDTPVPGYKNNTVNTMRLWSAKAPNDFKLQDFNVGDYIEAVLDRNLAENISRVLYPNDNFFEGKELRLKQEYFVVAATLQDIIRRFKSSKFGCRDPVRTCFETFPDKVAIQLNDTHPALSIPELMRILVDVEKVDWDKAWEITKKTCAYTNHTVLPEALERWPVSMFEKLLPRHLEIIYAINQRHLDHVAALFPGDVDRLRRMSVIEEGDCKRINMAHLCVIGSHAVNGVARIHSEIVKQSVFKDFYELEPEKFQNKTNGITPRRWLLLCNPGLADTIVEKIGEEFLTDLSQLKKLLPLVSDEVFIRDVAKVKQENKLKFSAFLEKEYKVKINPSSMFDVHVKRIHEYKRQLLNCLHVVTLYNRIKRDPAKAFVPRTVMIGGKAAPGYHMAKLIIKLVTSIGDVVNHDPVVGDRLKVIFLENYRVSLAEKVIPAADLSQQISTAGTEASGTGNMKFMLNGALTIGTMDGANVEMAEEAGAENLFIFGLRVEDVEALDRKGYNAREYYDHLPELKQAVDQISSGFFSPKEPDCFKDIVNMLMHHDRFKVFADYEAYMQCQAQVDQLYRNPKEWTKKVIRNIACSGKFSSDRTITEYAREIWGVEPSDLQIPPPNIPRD

[5] = target: Elongation factor Tu, mitochondrial (Homo sapiens, UniProt P49411)
[6] = target: Cyclin-dependent kinase 7 (Homo sapiens, UniProt P50613)
[7] = target: Mitogen-activated protein kinase 9 (Homo sapiens, UniProt P45984)
Myosin-10 = Myosin-10 (Homo sapiens, UniProt P35580)
[8] = target: Mitogen-activated protein kinase 8 (Homo sapiens, UniProt P45983)
[9] = target: PAS domain-containing serine/threonine-protein kinase (Homo sapiens, UniProt Q96RG2)
[10] = target: Protein-tyrosine kinase 6 (Homo sapiens, UniProt Q13882)
GTP-binding protein 4 = GTP-binding protein 4 (Homo sapiens, UniProt Q9BZE4)

Measured: Kd
Note: in the data inactive means no Kd found up to 30 µM.

Sequence of Epithelial discoidin domain-containing receptor 1 (Q08345 whole entry, the tested form may be a part): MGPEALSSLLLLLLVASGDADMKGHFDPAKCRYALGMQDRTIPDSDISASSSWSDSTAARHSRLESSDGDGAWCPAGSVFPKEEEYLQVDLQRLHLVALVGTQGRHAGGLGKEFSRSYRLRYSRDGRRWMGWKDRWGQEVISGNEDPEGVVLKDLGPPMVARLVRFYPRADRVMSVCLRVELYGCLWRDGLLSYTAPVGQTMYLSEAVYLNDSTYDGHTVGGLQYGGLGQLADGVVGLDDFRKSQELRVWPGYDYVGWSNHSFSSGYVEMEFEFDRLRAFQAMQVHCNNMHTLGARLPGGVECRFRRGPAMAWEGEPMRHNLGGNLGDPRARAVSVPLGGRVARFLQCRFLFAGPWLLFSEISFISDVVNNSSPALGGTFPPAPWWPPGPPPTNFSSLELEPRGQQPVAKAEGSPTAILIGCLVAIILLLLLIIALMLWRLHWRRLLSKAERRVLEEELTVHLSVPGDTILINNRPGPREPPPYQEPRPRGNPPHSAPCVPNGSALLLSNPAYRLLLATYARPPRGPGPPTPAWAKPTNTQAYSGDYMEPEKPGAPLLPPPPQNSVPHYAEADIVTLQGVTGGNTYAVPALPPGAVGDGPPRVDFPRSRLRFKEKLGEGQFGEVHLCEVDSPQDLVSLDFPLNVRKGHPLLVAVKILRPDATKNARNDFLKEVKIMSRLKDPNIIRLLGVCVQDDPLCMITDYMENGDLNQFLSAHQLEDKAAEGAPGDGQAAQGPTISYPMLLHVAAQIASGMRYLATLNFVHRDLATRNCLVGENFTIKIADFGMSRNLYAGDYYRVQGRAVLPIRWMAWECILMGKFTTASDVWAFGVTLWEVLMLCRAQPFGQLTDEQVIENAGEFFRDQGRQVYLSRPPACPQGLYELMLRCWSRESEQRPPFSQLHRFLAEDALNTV
Sequence of Mitogen-activated protein kinase 8 (P45983 whole entry, the tested form may be a part): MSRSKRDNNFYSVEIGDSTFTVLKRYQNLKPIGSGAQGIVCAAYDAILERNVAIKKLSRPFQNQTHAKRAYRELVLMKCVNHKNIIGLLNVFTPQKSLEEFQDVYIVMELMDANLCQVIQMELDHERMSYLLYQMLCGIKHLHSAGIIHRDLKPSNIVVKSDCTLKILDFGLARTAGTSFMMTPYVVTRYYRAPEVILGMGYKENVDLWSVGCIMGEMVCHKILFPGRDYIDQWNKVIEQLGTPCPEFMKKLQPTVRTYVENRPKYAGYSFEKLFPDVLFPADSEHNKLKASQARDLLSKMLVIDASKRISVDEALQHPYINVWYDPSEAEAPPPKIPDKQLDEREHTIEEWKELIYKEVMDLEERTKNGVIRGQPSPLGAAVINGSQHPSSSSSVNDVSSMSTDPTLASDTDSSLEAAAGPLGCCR
Sequence of Mitogen-activated protein kinase 9 (P45984 whole entry): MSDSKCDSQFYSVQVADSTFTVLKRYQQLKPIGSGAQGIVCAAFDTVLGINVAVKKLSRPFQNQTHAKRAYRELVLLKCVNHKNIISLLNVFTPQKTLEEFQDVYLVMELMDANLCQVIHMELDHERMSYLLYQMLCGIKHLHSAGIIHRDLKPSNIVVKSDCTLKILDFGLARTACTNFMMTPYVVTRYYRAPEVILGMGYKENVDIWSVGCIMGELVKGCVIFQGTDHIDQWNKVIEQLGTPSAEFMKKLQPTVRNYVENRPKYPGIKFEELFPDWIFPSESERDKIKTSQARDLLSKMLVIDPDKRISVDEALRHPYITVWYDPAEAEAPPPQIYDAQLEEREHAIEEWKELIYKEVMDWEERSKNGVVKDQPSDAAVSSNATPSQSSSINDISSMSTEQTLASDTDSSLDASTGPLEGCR
Sequence of PAS domain-containing serine/threonine-protein kinase (Q96RG2 whole entry, the tested form may be a part): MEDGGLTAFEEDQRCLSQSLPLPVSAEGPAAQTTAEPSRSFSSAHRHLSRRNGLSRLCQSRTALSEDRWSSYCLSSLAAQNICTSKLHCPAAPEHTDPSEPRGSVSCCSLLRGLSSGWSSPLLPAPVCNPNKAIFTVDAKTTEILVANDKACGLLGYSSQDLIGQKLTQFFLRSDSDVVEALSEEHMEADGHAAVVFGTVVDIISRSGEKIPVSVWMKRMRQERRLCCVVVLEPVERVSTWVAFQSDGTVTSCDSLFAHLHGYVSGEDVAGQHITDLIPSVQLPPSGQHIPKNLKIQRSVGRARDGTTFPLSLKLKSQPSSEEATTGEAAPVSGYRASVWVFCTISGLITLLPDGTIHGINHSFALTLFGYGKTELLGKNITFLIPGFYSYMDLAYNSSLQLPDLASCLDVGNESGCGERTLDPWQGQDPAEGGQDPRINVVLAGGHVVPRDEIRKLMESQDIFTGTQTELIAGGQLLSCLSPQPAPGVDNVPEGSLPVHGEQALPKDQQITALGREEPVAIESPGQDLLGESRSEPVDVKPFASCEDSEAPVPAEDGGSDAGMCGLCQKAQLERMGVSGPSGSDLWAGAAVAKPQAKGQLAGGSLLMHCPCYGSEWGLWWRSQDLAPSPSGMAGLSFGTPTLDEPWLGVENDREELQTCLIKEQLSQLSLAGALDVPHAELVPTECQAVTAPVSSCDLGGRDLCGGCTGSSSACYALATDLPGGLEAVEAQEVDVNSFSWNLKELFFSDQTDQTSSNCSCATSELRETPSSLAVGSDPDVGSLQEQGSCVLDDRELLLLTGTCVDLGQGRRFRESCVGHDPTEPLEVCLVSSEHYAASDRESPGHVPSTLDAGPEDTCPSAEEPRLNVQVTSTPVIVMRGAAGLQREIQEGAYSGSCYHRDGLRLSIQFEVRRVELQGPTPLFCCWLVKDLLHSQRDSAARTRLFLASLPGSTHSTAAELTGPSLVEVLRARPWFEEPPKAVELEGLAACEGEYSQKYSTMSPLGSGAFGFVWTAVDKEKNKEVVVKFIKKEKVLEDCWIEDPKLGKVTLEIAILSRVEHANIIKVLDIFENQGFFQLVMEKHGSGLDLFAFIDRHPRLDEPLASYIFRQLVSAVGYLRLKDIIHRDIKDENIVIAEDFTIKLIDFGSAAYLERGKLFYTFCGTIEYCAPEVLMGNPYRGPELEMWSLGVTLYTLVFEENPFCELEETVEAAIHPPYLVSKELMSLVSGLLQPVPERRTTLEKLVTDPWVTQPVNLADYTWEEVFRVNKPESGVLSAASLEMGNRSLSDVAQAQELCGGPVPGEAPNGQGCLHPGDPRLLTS
Sequence of Protein-tyrosine kinase 6 (Q13882 whole entry): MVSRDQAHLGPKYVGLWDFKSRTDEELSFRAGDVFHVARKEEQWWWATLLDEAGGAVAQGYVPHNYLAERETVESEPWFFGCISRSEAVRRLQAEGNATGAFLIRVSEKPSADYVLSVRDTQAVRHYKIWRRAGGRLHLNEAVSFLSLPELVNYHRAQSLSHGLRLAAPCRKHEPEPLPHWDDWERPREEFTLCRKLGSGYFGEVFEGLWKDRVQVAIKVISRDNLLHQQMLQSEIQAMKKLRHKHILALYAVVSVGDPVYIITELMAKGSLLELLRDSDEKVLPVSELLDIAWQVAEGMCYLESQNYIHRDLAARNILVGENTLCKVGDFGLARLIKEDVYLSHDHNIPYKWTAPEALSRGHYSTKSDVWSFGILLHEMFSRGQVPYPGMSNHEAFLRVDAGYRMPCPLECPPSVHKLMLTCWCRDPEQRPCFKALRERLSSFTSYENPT
Sequence of Cyclin-dependent kinase 7 (P50613 whole entry): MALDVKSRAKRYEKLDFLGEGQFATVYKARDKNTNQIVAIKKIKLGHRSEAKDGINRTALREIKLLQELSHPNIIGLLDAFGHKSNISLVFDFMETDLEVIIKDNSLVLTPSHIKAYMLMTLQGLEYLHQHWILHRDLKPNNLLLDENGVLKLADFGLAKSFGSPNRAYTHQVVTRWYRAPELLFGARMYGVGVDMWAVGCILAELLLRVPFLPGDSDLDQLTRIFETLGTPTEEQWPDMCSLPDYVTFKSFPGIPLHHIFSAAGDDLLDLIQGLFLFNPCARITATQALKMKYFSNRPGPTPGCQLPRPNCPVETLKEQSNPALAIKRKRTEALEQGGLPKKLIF

COc1cc2ncnc(Oc3cccc(NC(=O)Nc4cc(C(C)(C)C(F)(F)F)on4)c3)c2cc1OC [CEP-32496]
active: [3] 0.124 µM | [7] 0.148 µM | [8] 1.47 µM
inactive: [1] > 30 µM | [2] > 30 µM | [4] > 30 µM | [5] > 30 µM | [6] > 30 µM | Myosin-10 > 30 µM | [9] > 30 µM | [10] > 30 µM | GTP-binding protein 4 > 30 µM

COc1c(OCCCN2CCOCC2)ccc2c1N=C(NC(=O)c1cnc(N)nc1)N1CCN=C21 [COPANLISIB]
inactive: [1] > 30 µM | [2] > 30 µM | [3] > 30 µM | [4] > 30 µM | [5] > 30 µM | [6] > 30 µM | [7] > 30 µM | Myosin-10 > 30 µM | [8] > 30 µM | [9] > 30 µM | [10] > 30 µM | GTP-binding protein 4 > 30 µM

C#Cc1cccc(Nc2ncnc3cc(OC)c(OCCCCCCC(=O)NO)cc23)c1 [CUDC-101]
inactive: [1] > 30 µM | [2] > 30 µM | [3] > 30 µM | [4] > 30 µM | [5] > 30 µM | [6] > 30 µM | [7] > 30 µM | Myosin-10 > 30 µM | [8] > 30 µM | [9] > 30 µM | [10] > 30 µM | GTP-binding protein 4 > 30 µM

CCS(=O)(=O)N1CCN(c2ccc(Nc3ncc(C(N)=O)c(NC4CC4)n3)cc2)CC1 [Cerdulatinib Hydrochloride]
inactive: [1] > 30 µM | [2] > 30 µM | [3] > 30 µM | [4] > 30 µM | [5] > 30 µM | [6] > 30 µM | Myosin-10 > 30 µM | [9] > 30 µM | [10] > 30 µM | GTP-binding protein 4 > 30 µM
active: [7] 1.43 µM | [8] 0.356 µM

NC1(c2ccc(-c3nc4ccn5c(=O)[nH]nc5c4cc3-c3ccccc3)cc2)CCC1 [MK-2206]
inactive: [1] > 30 µM | [2] > 30 µM | [3] > 30 µM | [4] > 30 µM | [5] > 30 µM | [6] > 30 µM | [7] > 30 µM | Myosin-10 > 30 µM | [8] > 30 µM | [9] > 30 µM | [10] > 30 µM | GTP-binding protein 4 > 30 µM

FC(F)(F)c1ccc(/C=C/c2nc(COc3ccc(CCCCn4ccnn4)cc3)co2)cc1 [MUBRITINIB]
inactive: [1] > 30 µM | [2] > 30 µM | [3] > 30 µM | [4] > 30 µM | [5] > 30 µM | [6] > 30 µM | [7] > 30 µM | Myosin-10 > 30 µM | [8] > 30 µM | [9] > 30 µM | [10] > 30 µM | GTP-binding protein 4 > 30 µM

COc1ncc(-c2ccc3nccc(-c4ccnnc4)c3c2)cc1NS(=O)(=O)c1ccc(F)cc1F [OMIPALISIB]
inactive: [1] > 30 µM | [2] > 30 µM | [3] > 30 µM | [4] > 30 µM | [5] > 30 µM | [6] > 30 µM | [7] > 30 µM | Myosin-10 > 30 µM | [8] > 30 µM | [9] > 30 µM | [10] > 30 µM | GTP-binding protein 4 > 30 µM

CCOc1cc2ncc(C#N)c(Nc3ccc(F)c(Cl)c3)c2cc1NC(=O)/C=C/CN(C)C [PELITINIB]
inactive: [1] > 30 µM | [2] > 30 µM | [3] > 30 µM | [4] > 30 µM | [5] > 30 µM | [6] > 30 µM | [7] > 30 µM | Myosin-10 > 30 µM | [8] > 30 µM | [9] > 30 µM | [10] > 30 µM | GTP-binding protein 4 > 30 µM

CCCCCCCCCCCCCCCCCCOP(=O)([O-])OC1CC[N+](C)(C)CC1 [PERIFOSINE]
inactive: [1] > 30 µM | [2] > 30 µM | [3] > 30 µM | [4] > 30 µM | [5] > 30 µM | [6] > 30 µM | [7] > 30 µM | Myosin-10 > 30 µM | [8] > 30 µM | [9] > 30 µM | [10] > 30 µM | GTP-binding protein 4 > 30 µM

Cc1cnc(NC(=O)Nc2cc(Br)c(C)cc2OC[C@@H]2CNCCO2)cn1 [RABUSERTIB]
inactive: [1] > 30 µM | [2] > 30 µM | [3] > 30 µM | [4] > 30 µM | [5] > 30 µM | [6] > 30 µM | [7] > 30 µM | Myosin-10 > 30 µM | [8] > 30 µM | [9] > 30 µM | [10] > 30 µM | GTP-binding protein 4 > 30 µM

N#CC1(c2ccc(NC(=O)c3cccnc3NCc3ccncc3)cc2)CCCC1 [RIVOCERANIB]
inactive: [1] > 30 µM | [2] > 30 µM | [3] > 30 µM | [4] > 30 µM | [5] > 30 µM | [6] > 30 µM | [7] > 30 µM | Myosin-10 > 30 µM | [8] > 30 µM | [9] > 30 µM | [10] > 30 µM | GTP-binding protein 4 > 30 µM

Cn1cc(-c2cnn3c(N)c(Br)c([C@@H]4CCCNC4)nc23)cn1 [SCH-900776]
inactive: [1] > 30 µM | [2] > 30 µM | [3] > 30 µM | [4] > 30 µM | [5] > 30 µM | [6] > 30 µM | [7] > 30 µM | Myosin-10 > 30 µM | [8] > 30 µM | [9] > 30 µM | [10] > 30 µM | GTP-binding protein 4 > 30 µM

CO[C@H]1C[C@@H]2CC[C@@H](C)[C@@](O)(O2)C(=O)C(=O)N2CCCC[C@H]2C(=O)O[C@H]([C@H](C)C[C@@H]2CC[C@@H](O)[C@H](OC)C2)CC(=O)[C@H](C)/C=C(\C)[C@@H](O)[C@@H](OC)C(=O)[C@H](C)C[C@H](C)/C=C/C=C/C=C/1C [SIROLIMUS]
inactive: [1] > 30 µM | [2] > 30 µM | [3] > 30 µM | [4] > 30 µM | [5] > 30 µM | [6] > 30 µM | [7] > 30 µM | Myosin-10 > 30 µM | [8] > 30 µM | [9] > 30 µM | [10] > 30 µM | GTP-binding protein 4 > 30 µM

COc1cc2c(Nc3ccc(Cl)c(Cl)c3F)ncnc2cc1OC[C@@H]1C[C@@H]2CN(C)C[C@@H]2C1 [TESEVATINIB]
inactive: [1] > 30 µM | [2] > 30 µM | [4] > 30 µM | [5] > 30 µM | [6] > 30 µM | [7] > 30 µM | Myosin-10 > 30 µM | [8] > 30 µM | [9] > 30 µM | GTP-binding protein 4 > 30 µM
active: [3] 0.073 µM | [10] 0.172 µM
